In the supplement of paper PMC10307832:

These cell lines were tested with Cc1nc(C(=O)NCC(=O)O)c(O)c2ccc(Oc3ccccc3)cc12 [FG-4592] + CS(=O)(=O)N1CCN(Cc2cc3nc(-c4cccc5[nH]ncc45)nc(N4CCOCC4)c3s2)CC1 [Pictilisib] (partner 1 µM) (assay: relative viability (nuclei count vs DMSO), 5 days (fraction); higher = more cells survive). Conditions: first compound 8 µM.
Outline: (§1)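 Five library-drug doses in √10 steps were combined with a fixed anchor-drug dose, or a single drug was given alone, by pin tool to lung cancer cell lines in 1536-well plates the day after seeding. Nuclei were stained and counted after 5 days. Relative viability is the nuclei count in treated wells over that in vehicle wells, taken as the median of duplicate plates.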

RERF-LC-KJ showed a relative viability of 0.477.

These cell lines were tested with CC1=CC(=C(N1C2=CC=C(C=C2)Cl)C)C(=O)CN3CCCCC3 [IU1-47] + O=C(c1cc(Cc2n[nH]c(=O)c3ccccc23)ccc1F)N1CCN(C(=O)C2CC2)CC1 [Olaparib] (partner 8 µM) in the same assay as above. Conditions: first compound 0.08 µM.
Outline: as §1

Compared with HCC-44, LU99A is lower in relative viability: 1.07 for the first, 0.233 for the second.

Compared with BEN, HARA is lower in relative viability: 1.1 for the first, 1.02 for the second.

First: HCC-78
Second: NCI-H322M
The relative viability of the first is lower: 0.803 for the first, 0.838 for the second.

Going from LCLC-97TM1 to A-427, the relative viability rises from 0.44 to 0.81.

Compared with NCI-H441, NCI-H1734 is higher in relative viability: 0.61 for the first, 0.669 for the second.

Going from NCI-H460 to NCI-H2347, the relative viability rises from 0.545 to 0.652.

Going from NCI-H1395 to 201T, the relative viability rises from 0.46 to 0.829.

Going from NCI-H1915 to HCC-827, the relative viability rises from 0.251 to 0.617.

First: LXF-289
Second: NCI-H23
The relative viability of the first is higher: 1.08 for the first, 0.288 for the second.

Going from NCI-H647 to NCI-H1651, the relative viability falls from 0.661 to 0.155.

First: EPLC-272H
Second: NCI-H1792
The relative viability of the first is higher: 0.77 for the first, 0.659 for the second.

Compared with NCI-H1355, NCI-H3122 is lower in relative viability: 0.781 for the first, 0.644 for the second.

First: NCI-H1437
Second: NCI-H1755
The relative viability of the first is lower: 0.623 for the first, 0.914 for the second.

First: HCC-15
Second: NCI-H1793
The relative viability of the first is lower: 0.75 for the first, 0.861 for the second.

Compared with PC-14, EKVX is higher in relative viability: 0.197 for the first, 0.827 for the second.

First: LC-2-ad
Second: NCI-H1944
The relative viability of the first is higher: 0.726 for the first, 0.433 for the second.

Going from NCI-H1975 to RERF-LC-KJ, the relative viability rises from 0.858 to 0.867.

Same assay, conditions: first compound 0.253 µM

Compared with HCC-44, LU99A is lower in relative viability: 0.978 for the first, 0.273 for the second.

First: BEN
Second: HCC-78
The relative viability of the first is higher: 1.06 for the first, 0.792 for the second.

Going from NCI-H322M to LCLC-97TM1, the relative viability falls from 0.838 to 0.461.

First: A-427
Second: NCI-H441
The relative viability of the first is higher: 0.811 for the first, 0.591 for the second.

Compared with NCI-H1734, NCI-H460 is lower in relative viability: 0.75 for the first, 0.407 for the second.

Compared with NCI-H2347, NCI-H1395 is lower in relative viability: 0.607 for the first, 0.432 for the second.

Going from 201T to NCI-H1915, the relative viability falls from 0.869 to 0.267.

First: HCC-827
Second: LXF-289
The relative viability of the first is lower: 0.694 for the first, 1.15 for the second.

First: NCI-H647
Second: NCI-H1651
The relative viability of the first is higher: 0.755 for the first, 0.162 for the second.

First: EPLC-272H
Second: NCI-H1792
The relative viability of the first is higher: 0.867 for the first, 0.481 for the second.

Going from NCI-H1355 to NCI-H3122, the relative viability falls from 0.826 to 0.665.

Compared with NCI-H1437, NCI-H1755 is higher in relative viability: 0.615 for the first, 0.872 for the second.

First: HCC-15
Second: PC-14
The relative viability of the first is higher: 0.722 for the first, 0.308 for the second.

Going from EKVX to LC-2-ad, the relative viability falls from 1.06 to 0.711.

First: NCI-H1944
Second: NCI-H1975
The relative viability of the first is lower: 0.409 for the first, 0.773 for the second.

RERF-LC-KJ was tested, and the relative viability was 0.916.

Same assay, conditions: first compound 0.8 µM

Compared with HCC-44, LU99A is lower in relative viability: 1.03 for the first, 0.272 for the second.

Going from BEN to HARA, the relative viability falls from 1.12 to 0.703.

Compared with HCC-78, NCI-H322M is higher in relative viability: 0.805 for the first, 0.813 for the second.

First: LCLC-97TM1
Second: A-427
The relative viability of the first is lower: 0.352 for the first, 0.716 for the second.

Going from NCI-H441 to NCI-H1734, the relative viability rises from 0.511 to 0.631.

First: NCI-H460
Second: NCI-H2347
The relative viability of the first is lower: 0.501 for the first, 0.628 for the second.

First: NCI-H1395
Second: 201T
The relative viability of the first is lower: 0.44 for the first, 0.854 for the second.

Going from NCI-H1915 to HCC-827, the relative viability rises from 0.267 to 0.631.

Compared with LXF-289, NCI-H23 is lower in relative viability: 1.09 for the first, 0.281 for the second.

Going from NCI-H647 to NCI-H1651, the relative viability falls from 0.556 to 0.17.

Compared with EPLC-272H, NCI-H1792 is lower in relative viability: 0.684 for the first, 0.365 for the second.

Going from NCI-H1355 to NCI-H3122, the relative viability falls from 0.751 to 0.692.

Compared with NCI-H1437, NCI-H1755 is higher in relative viability: 0.618 for the first, 0.883 for the second.

First: HCC-15
Second: NCI-H1793
The relative viability of the first is lower: 0.767 for the first, 1.1 for the second.

First: PC-14
Second: EKVX
The relative viability of the first is lower: 0.204 for the first, 0.896 for the second.

First: LC-2-ad
Second: NCI-H1944
The relative viability of the first is higher: 0.673 for the first, 0.398 for the second.

Compared with NCI-H1975, RERF-LC-KJ is higher in relative viability: 0.748 for the first, 0.894 for the second.

Same assay, conditions: first compound 2.53 µM

Going from HCC-44 to LU99A, the relative viability falls from 1.06 to 0.265.

Compared with BEN, HARA is lower in relative viability: 1.11 for the first, 0.632 for the second.

Going from HCC-78 to NCI-H322M, the relative viability rises from 0.59 to 0.845.

Compared with A-427, NCI-H441 is lower in relative viability: 0.82 for the first, 0.543 for the second.

Going from NCI-H1734 to NCI-H460, the relative viability falls from 0.608 to 0.398.

Going from NCI-H2347 to NCI-H1395, the relative viability falls from 0.562 to 0.452.

Compared with 201T, NCI-H1915 is lower in relative viability: 0.838 for the first, 0.252 for the second.

First: HCC-827
Second: LXF-289
The relative viability of the first is lower: 0.683 for the first, 0.993 for the second.

Going from NCI-H23 to NCI-H647, the relative viability rises from 0.385 to 0.783.

Going from NCI-H1651 to EPLC-272H, the relative viability rises from 0.183 to 0.851.

First: NCI-H1792
Second: NCI-H3122
The relative viability of the first is lower: 0.384 for the first, 0.692 for the second.

Compared with NCI-H1437, NCI-H1755 is higher in relative viability: 0.633 for the first, 0.948 for the second.

Going from HCC-15 to NCI-H1793, the relative viability rises from 0.711 to 1.01.

Compared with PC-14, NCI-H1944 is higher in relative viability: 0.238 for the first, 0.356 for the second.

Going from NCI-H1975 to RERF-LC-KJ, the relative viability falls from 1.02 to 0.943.

Same assay, conditions: first compound 8 µM

First: HCC-44
Second: LU99A
The relative viability of the first is higher: 0.93 for the first, 0.245 for the second.

Compared with BEN, HARA is lower in relative viability: 0.933 for the first, 0.567 for the second.

First: HCC-78
Second: NCI-H322M
The relative viability of the first is higher: 0.813 for the first, 0.757 for the second.

Going from LCLC-97TM1 to A-427, the relative viability rises from 0.21 to 0.711.

Compared with NCI-H441, NCI-H1734 is higher in relative viability: 0.539 for the first, 0.656 for the second.

First: NCI-H460
Second: NCI-H2347
The relative viability of the first is lower: 0.35 for the first, 0.603 for the second.

Going from NCI-H1395 to 201T, the relative viability rises from 0.412 to 0.666.

Going from NCI-H1915 to HCC-827, the relative viability rises from 0.261 to 0.648.

First: LXF-289
Second: NCI-H23
The relative viability of the first is higher: 0.862 for the first, 0.257 for the second.

Going from NCI-H647 to NCI-H1651, the relative viability falls from 0.333 to 0.185.

Going from EPLC-272H to NCI-H1792, the relative viability falls from 0.92 to 0.215.

Going from NCI-H1355 to NCI-H3122, the relative viability falls from 0.781 to 0.696.

Compared with NCI-H1437, NCI-H1755 is higher in relative viability: 0.549 for the first, 0.829 for the second.

Compared with HCC-15, NCI-H1793 is higher in relative viability: 0.662 for the first, 0.87 for the second.

Going from PC-14 to EKVX, the relative viability rises from 0.233 to 0.87.

For LC-2-ad, the relative viability was 0.732.
